{"source": "patent US7112418B2", "about": "“Ion channel” (priority 1995, dated 2006)", "key": {"[1]": {"tested_on": "Rat brain iia sodium channel", "details": "read-out: IC50 (TTX Sensitivity); cited from earlier work"}, "[2]": {"molecular_target": "muscle type 1 sodium channel (Rattus norvegicus, UniProt P15390)", "details": "read-out: IC50 (TTX Sensitivity); cited from earlier work"}, "[3]": {"molecular_target": "mutated SNS sodium channel (SNS mutant) (Rattus norvegicus, UniProt Q62968, S356F)", "sequence (Q62968 whole entry S356F, looked up)": "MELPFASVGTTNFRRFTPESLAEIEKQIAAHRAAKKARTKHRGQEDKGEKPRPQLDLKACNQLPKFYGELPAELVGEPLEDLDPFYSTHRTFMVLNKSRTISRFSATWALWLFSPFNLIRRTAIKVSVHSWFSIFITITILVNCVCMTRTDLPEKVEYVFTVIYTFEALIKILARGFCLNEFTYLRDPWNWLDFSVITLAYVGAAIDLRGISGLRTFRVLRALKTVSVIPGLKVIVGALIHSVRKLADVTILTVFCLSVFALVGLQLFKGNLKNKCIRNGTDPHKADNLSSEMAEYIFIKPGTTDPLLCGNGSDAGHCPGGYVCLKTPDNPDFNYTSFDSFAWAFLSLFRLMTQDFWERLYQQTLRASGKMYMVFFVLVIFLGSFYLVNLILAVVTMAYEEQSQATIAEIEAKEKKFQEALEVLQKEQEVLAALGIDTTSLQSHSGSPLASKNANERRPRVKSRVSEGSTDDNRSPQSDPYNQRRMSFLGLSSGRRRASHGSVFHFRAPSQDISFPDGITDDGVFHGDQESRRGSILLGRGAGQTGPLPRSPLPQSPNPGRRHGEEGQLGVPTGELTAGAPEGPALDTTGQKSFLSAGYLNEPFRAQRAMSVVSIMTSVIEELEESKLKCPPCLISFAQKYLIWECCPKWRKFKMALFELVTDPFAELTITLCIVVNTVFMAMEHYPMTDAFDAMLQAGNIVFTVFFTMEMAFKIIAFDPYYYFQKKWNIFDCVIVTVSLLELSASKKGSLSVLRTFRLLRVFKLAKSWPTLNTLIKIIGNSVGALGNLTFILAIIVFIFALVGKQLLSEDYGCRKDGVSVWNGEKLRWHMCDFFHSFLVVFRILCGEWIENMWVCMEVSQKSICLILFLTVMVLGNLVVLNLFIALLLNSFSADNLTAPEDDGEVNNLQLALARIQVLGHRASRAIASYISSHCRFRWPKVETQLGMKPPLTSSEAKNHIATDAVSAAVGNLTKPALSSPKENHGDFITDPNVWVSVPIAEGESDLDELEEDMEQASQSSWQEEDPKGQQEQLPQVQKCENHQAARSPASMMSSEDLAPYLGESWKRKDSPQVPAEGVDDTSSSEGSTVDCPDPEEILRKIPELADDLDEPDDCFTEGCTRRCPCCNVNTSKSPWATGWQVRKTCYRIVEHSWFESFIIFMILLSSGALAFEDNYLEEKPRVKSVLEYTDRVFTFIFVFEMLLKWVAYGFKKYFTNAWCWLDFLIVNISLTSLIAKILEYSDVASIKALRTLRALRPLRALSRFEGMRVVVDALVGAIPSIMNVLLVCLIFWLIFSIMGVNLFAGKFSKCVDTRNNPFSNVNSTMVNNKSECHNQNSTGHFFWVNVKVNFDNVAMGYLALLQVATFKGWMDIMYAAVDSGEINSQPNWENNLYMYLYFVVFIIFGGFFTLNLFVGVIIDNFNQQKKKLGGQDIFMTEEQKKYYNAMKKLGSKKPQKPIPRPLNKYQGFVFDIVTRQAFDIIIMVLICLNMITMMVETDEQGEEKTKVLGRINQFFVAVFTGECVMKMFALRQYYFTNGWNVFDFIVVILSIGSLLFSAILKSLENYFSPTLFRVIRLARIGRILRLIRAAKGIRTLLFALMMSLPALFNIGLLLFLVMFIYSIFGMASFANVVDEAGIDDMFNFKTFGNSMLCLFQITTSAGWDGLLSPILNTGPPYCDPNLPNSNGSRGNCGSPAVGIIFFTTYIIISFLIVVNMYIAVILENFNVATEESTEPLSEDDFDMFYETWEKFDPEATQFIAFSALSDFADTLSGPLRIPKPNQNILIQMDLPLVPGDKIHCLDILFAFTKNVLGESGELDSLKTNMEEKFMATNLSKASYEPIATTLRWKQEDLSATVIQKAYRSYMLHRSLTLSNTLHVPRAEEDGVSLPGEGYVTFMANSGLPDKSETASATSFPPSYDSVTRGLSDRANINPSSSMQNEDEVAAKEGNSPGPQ", "assay_type": "cell-based", "details": "read-out: IC50 (TTX sensitivity restored)"}, "[4]": {"molecular_target": "SNS sodium channel (Rattus norvegicus, UniProt Q62968)", "sequence (Q62968 other isoform, or with tags, fused parts or gaps with the stated changes)": "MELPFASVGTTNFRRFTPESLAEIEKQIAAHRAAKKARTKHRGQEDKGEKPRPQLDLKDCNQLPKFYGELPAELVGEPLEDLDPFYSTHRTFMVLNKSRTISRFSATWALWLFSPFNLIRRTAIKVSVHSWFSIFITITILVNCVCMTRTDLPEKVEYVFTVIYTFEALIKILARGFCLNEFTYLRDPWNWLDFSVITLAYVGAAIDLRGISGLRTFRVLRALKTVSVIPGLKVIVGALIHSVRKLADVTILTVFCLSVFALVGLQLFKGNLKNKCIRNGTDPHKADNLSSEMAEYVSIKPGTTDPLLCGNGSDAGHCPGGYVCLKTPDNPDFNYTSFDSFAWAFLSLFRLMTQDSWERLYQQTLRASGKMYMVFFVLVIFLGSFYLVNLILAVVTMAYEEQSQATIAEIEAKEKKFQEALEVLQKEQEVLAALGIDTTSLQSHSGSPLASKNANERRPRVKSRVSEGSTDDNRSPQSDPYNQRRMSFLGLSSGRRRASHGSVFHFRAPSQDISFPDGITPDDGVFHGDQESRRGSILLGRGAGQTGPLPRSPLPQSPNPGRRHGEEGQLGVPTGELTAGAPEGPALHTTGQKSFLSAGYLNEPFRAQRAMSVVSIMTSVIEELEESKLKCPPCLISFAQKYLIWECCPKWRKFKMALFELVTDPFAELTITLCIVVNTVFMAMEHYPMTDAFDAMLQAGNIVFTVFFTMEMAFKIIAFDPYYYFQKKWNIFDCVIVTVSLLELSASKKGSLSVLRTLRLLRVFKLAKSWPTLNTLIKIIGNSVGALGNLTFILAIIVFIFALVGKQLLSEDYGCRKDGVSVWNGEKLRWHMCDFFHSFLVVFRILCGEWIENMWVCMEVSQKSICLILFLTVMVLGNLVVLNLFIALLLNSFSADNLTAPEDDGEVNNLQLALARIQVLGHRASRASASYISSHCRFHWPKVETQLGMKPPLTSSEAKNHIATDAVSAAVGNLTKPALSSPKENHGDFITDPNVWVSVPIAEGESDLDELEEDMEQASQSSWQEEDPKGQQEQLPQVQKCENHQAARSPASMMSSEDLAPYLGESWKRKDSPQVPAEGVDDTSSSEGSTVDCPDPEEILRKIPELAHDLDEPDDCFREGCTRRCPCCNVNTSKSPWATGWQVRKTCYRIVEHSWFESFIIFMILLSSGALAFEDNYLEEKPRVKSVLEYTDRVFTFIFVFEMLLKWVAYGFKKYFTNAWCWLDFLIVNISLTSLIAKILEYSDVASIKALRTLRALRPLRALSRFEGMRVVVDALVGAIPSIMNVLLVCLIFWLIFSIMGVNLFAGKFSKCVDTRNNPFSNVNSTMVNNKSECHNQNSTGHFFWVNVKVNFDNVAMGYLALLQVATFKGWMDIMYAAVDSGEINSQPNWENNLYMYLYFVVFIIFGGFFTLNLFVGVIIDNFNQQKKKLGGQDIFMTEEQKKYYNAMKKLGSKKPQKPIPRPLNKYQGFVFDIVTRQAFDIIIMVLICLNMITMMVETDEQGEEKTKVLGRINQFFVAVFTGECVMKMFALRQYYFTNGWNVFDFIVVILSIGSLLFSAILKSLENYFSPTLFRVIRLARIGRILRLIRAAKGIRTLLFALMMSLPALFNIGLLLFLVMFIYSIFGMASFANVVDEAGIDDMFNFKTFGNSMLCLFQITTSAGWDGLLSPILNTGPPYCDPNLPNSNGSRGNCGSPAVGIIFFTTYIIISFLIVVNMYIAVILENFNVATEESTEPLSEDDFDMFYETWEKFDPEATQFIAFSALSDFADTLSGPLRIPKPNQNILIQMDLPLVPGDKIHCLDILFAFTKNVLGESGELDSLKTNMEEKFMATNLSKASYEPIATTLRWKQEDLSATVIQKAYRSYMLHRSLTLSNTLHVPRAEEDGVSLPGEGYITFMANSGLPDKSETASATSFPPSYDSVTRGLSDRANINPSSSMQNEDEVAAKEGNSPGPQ", "assay_type": "cell-based"}, "[5]": {"tested_on": "DRG sodium channel transcript", "test": "Northern blot of adult DRG RNA from rats treated with capsaicin as neonates", "assay_type": "in vivo, rat", "details": "neonatal rats treated, total adult DRG RNA", "experimental": "Random primed ^32P-labeled DNA Pst-Acc 1 fragment probes (50 ng, specific activity 2×10^9 c.p.m. per μg DNA) from interdomain region 1 (nucleotide position 1,478-1,892) of the SNS sodium channel nucleic acid sequence were used to probe total RNA extracted from tissues.\nTotal RNA was separated on 1.2% agarose-formaldehyde gels, and capillary blotted onto Hibond-N filters (Amersham). The amounts of RNA on the blot were roughly equivalent, as judged by ethidium bromide staining of ribosomal RNA and by hybridization with the ubiquitously expressed L-27 ribosomal protein transcripts. Filters were prehybridized in 50% formamide, 5×SSC containing 0.5% sodium dodecyl sulfate, 5× Denhardts solution, 100 μg/ml boiled sonicated salmon sperm DNA (average size 300 bp), 10 μg/ml poly-U and 10 μg/ml poly-C at 45° C. for 6 h. After 36 hours hybridization in the same conditions using 10^7 c.p.m. per ml hybridization probe, the filters were briefly washed in 2×SSC at room temperature, then twice with 2×SSC with 0.5% SDS at 68° C. for 15 min, followed by a 20 min wash in 0.5% SDS, 0.2×SSC at 68° C. The filters were autoradiographed overnight or for 4 days on autoradiography film (Kodak X-omat)."}, "[6]": {"tested_on": "DRG sodium channel transcripts", "test": "RT-PCR of DRG sodium channel transcripts in cultured DRG neurons treated with capsaicin", "assay_type": "cell-based, rat", "details": "overnight 10 μM", "experimental": "(§1) cDNA was synthesized with Superscript reverse transcriptase using oligo dT(12-18) primers and purified on Qiagen 5 tips. Polymerase chain reaction (PCR) was used to amplify cDNA (35 cycles, 94° C., 1 min; 55° C., 1 min; and 72° C., 1 min), and products separated on agarose gels before staining with ethidium bromide. L-27 primers (Ninkina et al. (1983) Nucleic Acids Res. 21, 3175-3182) were added to the PCR reaction 5 cycles after the start of the reaction with the DRG sodium channel specific primers which comprised"}, "[7]": {"tested_on": "DRG sodium channel transcripts", "test": "RT-PCR of DRG sodium channel transcripts in DRG of neonatal animals treated with capsaicin", "assay_type": "in vivo, rat", "details": "50 mg/kg on 2 consecutive days, DRG isolation 5 days later", "experimental": "as §1"}}, "note": "Where two headings read alike, the source gives them in different places."}
{"compound": "NC1=N[C@H](O)[C@H]2[C@H]3O[C@]4(O)O[C@@H]([C@@H](O)[C@@]2(N1)[C@@H]4O)[C@]3(O)CO", "note": "[TTX, tetrodotoxin]", "values": [{"measurement": "IC50", "setting": "[1]", "value": 18, "unit": "nM"}, {"measurement": "IC50", "setting": "[2]", "value": 40, "unit": "nM"}, {"measurement": "IC50", "setting": "[3]", "value": 2.5, "unit": "nM"}, {"measurement": "block of the channel", "setting": "[4]", "value": "only partially blocked"}, {"measurement": "effect on peak Na+ current", "setting": "[4]", "value": "no effect"}, {"measurement": "effect on the channel", "setting": "[4]", "value": "unaffected"}, {"measurement": "reduction of peak Na+ current", "setting": "[4]", "value": "19.1±8.3", "unit": "%"}, {"measurement": "reversibility of effect on peak Na+ current", "setting": "[4]", "value": "quickly reversible upon washout"}, {"measurement": "IC50", "setting": "[4]; read-out: IC50 (TTX Sensitivity)", "value": 60000, "unit": "nM"}, {"measurement": "IC50", "setting": "[4]; read-out: IC50 (relative insensitivity to TTX)", "value": "> 1000", "unit": "nM"}, {"measurement": "IC50", "setting": "[4]; read-out: estimated half-maximal inhibitory concentration (IC50)", "value": "59600 ± 10100", "unit": "nM"}]}
{"compound": "COc1cc(CNC(=O)CCCC/C=C/C(C)C)ccc1O", "note": "[capsaicin]", "values": [{"measurement": "DRG sodium channel northern blot signal", "setting": "[5]", "value": "substantially reduced"}, {"measurement": "DRG sodium channel signal (RT-PCR) compared with controls", "setting": "[6]", "value": "significant diminution"}, {"measurement": "DRG sodium channel signal (RT-PCR) compared with controls", "setting": "[7]", "value": "significant diminution"}]}
{"compound": "CCN(CC)CC(=O)Nc1c(C)cccc1C", "note": "[lignocaine]", "values": [{"measurement": "maximum block of peak current", "setting": "[4]", "value": "41.7±5.4", "unit": "%"}]}
{"compound": "O=C1NC(=O)C(c2ccccc2)(c2ccccc2)N1", "note": "[phenytoin]", "values": [{"measurement": "effect on peak current", "setting": "[4]; 100 μM, depolarizing pulses from −60 mV to +10 mV, 1 every min", "value": "no effect"}]}
